Paper PMC3919520 (Bioorganic & medicinal chemistry, 2013)
“Also recorded” adds a separate entry of the source.

Key:
[1] = tested on: hiPSC-derived neurons
[2] = target: BoNT/A (Clostridium botulinum, UniProt P0DPI1); format: cell-based, C. botulinum
Chain of BoNT/A (P0DPI1 2-448 limits assumed): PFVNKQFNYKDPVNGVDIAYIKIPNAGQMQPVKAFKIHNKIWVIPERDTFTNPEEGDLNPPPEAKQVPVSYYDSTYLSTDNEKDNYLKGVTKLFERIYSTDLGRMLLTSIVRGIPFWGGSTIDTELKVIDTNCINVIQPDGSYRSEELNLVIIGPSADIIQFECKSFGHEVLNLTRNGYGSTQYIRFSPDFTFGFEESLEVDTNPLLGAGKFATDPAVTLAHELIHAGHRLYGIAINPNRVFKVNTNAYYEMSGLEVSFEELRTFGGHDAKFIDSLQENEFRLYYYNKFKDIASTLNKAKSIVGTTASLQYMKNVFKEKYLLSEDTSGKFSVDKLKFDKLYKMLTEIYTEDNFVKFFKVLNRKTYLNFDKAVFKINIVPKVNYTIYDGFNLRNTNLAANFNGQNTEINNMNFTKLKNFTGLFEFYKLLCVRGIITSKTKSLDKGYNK

SMILES	Cytotoxicity (result in words) [1]	Inhibition [2]	Inhibition / protection of SNAP-25 from the neurotoxin (result in words) [2]	Cytotoxicity ([1]; at 150 µM)
O=C(CC(CCO)c1ccc(Cl)cc1Cl)NOC(=O)NCc1ccccc1 (centres unmarked) [compound 2, N-((benzylcarbamoyl)oxy)-3-(2,4-dichlorophenyl)-5-hydroxypentanamide]	did not show cytotoxicity	no inhibition; also recorded: partial inhibition at 300 µM	ineffective inhibitors	
O=C(/C=C/c1ccc(Cl)cc1Cl)NOC(=O)NCc1ccccc1 [compound 1, (E)-N-((benzylcarbamoyl)oxy)-3-(2,4-dichlorophenyl)acrylamide]			ineffective inhibitors	cytotoxic at 150 µM ^a
